Test results published in patent publication US10028949B2, “Parenteral formulations of lipophilic pharmaceutical agents and methods for preparing and using the same” (priority 2011, dated 2018).

Assay: Parenteral busulfan pharmacology in mice
Experimental: Swiss Webster mice with a body weight of 25-30 g were used for the in vivo pharmacology experiments (Harlan-Sprague-Dawley, Houston, Tex.). The animals were allowed a minimum of 3-4 days after arrival to acclimatize to the new environment and allowed free access to commercial feed and hyperchlorinated, reverse-osmosis purified water prior to and during the experimentation period. The animal-housing facilities meet the requirements of the USDA, NIH, and DHHS.
Busulfan at a dose of 10 mg/kg BW was used as an appropriate and representative single dose that could be administered as a slow IV bolus injection over 3-4 min.
The Bu was formulated in the prototype VE-acetone/PEG vehicle to a stock concentration of about 10 mg/mL and then diluted with D5W to 1 mg/mL and 2 mg/mL (in repeated experiments) so the total dose of 10 mg/kg could be injected in a volume of about 250 μL and 125 μL, respectively, in a tail vein. The Bu concentrations of the final use-formulation were confirmed by HPLC prior to administration.
No anticonvulsant premedication was used in the animals in these experiments to avoid the possible induction of microsomal liver enzymes that could modify Bu metabolism. For the same reason the animals were unanesthetized during the drug injection, only physically restrained.
Blood samples (0.5-1.0 mL) were procured through cardiac puncture under Isoflurane-induced general anesthesia. These samples were drawn in preheparinized tubes at selected time points prior to the drug infusion (“blank”), and from 5 min to 4 hours after drug injection for determination of Bu concentrations. The blood was centrifuged at 1,000×g for 10 min, and plasma was removed and stored at −80° C. until extracted and assayed by HPLC.

CS(=O)(=O)OCCCCOS(C)(=O)=O [Busulfan, 1,4-butanediol dimethanesulfonate]
half-life (Swiss Webster, mouse, plasma, iv, 10 mg/kg): 2.5 to 3.5 h
tolerability of injections (mice, 10 mg/kg IV, acute 4-hour observation period): well tolerated
hemolysis in vivo (urine samples) (mice, 10 mg/kg, urine samples up to 4 hours): no sign of hemolysis
Bu plasma concentrations (mice, IV 10 mg/kg BW): for several hours remained in the cytotoxic range
